Assay: Thermo Scientific Acclaim RSLC 120 C18, 100 × 2.1 mm, 2.2 µm, 30 °C; A: 90% water + 10% methanol + 0.01% formic acid + 5 mM ammonium formate; B: methanol + 0.01% formic acid + 5 mM ammonium formate; gradient (min/%B) 0.1/1 3/39 14/99.9 16/99.9
Settings: stereoisomer not certain

| LC retention time | Structure (SMILES) |
| --- | --- |
| 11.1 min | COC(=O)C1=C(C)NC(C)=C(C(=O)OC(C)(C)CN(C)CCC(c2ccccc2)c2ccccc2)C1c1cccc([N+](=O)[O-])c1 (configuration not stated) |
| 3.16 min | CC(C)Nc1nc(N)[nH]c(=O)n1 |
| 4.84 min | CC(C)(C)NCC(O)COc1cccc2c1CCCC2=O (configuration not stated) |
| 5.18 min | COC(=O)CCc1ccc(OCC(O)CNC(C)C)cc1 (configuration not stated) |
| 7.23 min | CN1CCC(OC(c2ccccc2)c2ccccc2)CC1 |
| 8.08 min | CNCCCN1c2ccccc2CCc2ccccc21 |
| 10.1 min | CCCCc1oc2ccc(NS(C)(=O)=O)cc2c1C(=O)c1ccc(OCCCN(CCCC)CCCC)cc1 |
| 3.74 min | Nc1nc2ccccc2[nH]1 |
| 5.23 min | CC(=O)CCCCn1c(=O)c2c(ncn2C)n(C)c1=O |
| 3.71 min | COc1nc(C)nc(N)n1 |
| 5.66 min | Cc1ccccc1N1CCN(CCc2nnc3n2CCCC3)CC1 |
| 3.43 min | CNS(=O)(=O)Cc1ccc2[nH]cc(CCN(C)C)c2c1 |
| 9.34 min | CSc1ccc2c(c1)N(CCC1CCCCN1C)c1ccccc1S2 (configuration not stated) |
| 8.68 min | COc1ccc2cccc(CCNC(C)=O)c2c1 |
| 4.73 min | CCC(CC)OC1C=C(C(=O)O)CC(N)C1NC(C)=O (configuration not stated) |
| 7.63 min | CNCCC(Oc1ccccc1C)c1ccccc1 (configuration not stated) |
| 4.69 min | CCCNC(C)C(=O)Nc1c(C)csc1C(=O)OC (configuration not stated) |
| 9.18 min | CCC1OC(=O)C(C)C(OC2CC(C)(OC)C(O)C(C)O2)C(C)C(OC2OC(C)CC(N(C)C)C2O)C(C)(OC)CC(C)C(=O)C(C)C(O)C1(C)O (configuration not stated) |
| 5.51 min | CN1CCCC1Cc1c[nH]c2ccc(CCS(=O)(=O)c3ccccc3)cc12 (configuration not stated) |
| 13.7 min | CC12CCC(=O)C=C1CCC1C2CCC2(C)C(C(=O)CO)CCC12 (configuration not stated) |
| 6.71 min | CC(N)C12CC3CC(CC(C3)C1)C2 (configuration not stated) |
| 9.61 min | CCCCC1(COC(=O)CCC(=O)O)C(=O)N(c2ccccc2)N(c2ccccc2)C1=O |

| LC retention time | Structure (SMILES) |
| --- | --- |
| 8.49 min | CCC(=O)c1ccc2c(c1)N(CCCN(C)C)c1ccccc1S2 |
| 3.23 min | CC(C)(C)NCC(O)c1ccc(O)c(CO)c1 (configuration not stated) |
| 3.14 min | Nc1ncnc2c1ncn2C1OC(CO)C(O)C1O (configuration not stated) |
| 7.21 min | CNCCN1C(=O)C(OC(C)=O)C(c2ccc(OC)cc2)Sc2ccccc21 (configuration not stated) |
| 9.16 min | CCC1OC(=O)C(C)C(OC2CC(C)(OC)C(O)C(C)O2)C(C)C(OC2OC(C)CC(NC)C2O)C(C)(OC)CC(C)C(=O)C(C)C(O)C1(C)O (configuration not stated) |
| 9.99 min | CCN(CC)CCOC(=O)C1(C2CCCCC2)CCCCC1 |
| 8.79 min | Cc1oc(C)c(C(=O)Nc2ccccc2)c1C |
| 7.83 min | CCCc1nn(C)c2c(=O)[nH]c(-c3cc(S(=O)(=O)N4CCN(CCO)CC4)ccc3OCC)nc12 |
| 5.34 min | COc1cc2nc(N3CCN(C(=O)c4ccco4)CC3)nc(N)c2cc1OC |
| 6.71 min | CN1C(=O)CC(C)(c2ccccc2)C1=O (configuration not stated) |
| 9.35 min | CC(=O)OCC(=O)C12N=C(C)OC1CC1C3CCC4=CC(=O)C=CC4(C)C3C(O)CC12C (configuration not stated) |
| 5.32 min | CCn1nc(C(=O)O)c(=O)c2cc3c(cc21)OCO3 |
| 9.14 min | COCCCNc1nc(NC(C)C)nc(SC)n1 |
| 8.14 min | COc1ccc2c(c1)N(CC(C)CN(C)C)c1ccccc1S2 (configuration not stated) |
| 6.68 min | CC(C)NCC(O)COc1ccc(CCOCC2CC2)cc1 (configuration not stated) |
| 6.21 min | CC(C)(C(=O)c1cccnc1)c1cccnc1 |
| 1.4 min | CC(=O)NCCCS(=O)(=O)O |
| 7.29 min | CN(C)CCOc1ccccc1Cc1ccccc1 |
| 4.21 min | CC(CCc1ccc(O)cc1)NCCc1ccc(O)c(O)c1 (configuration not stated) |
| 5.09 min | CN1C2CCC1CC(OC(=O)c1c[nH]c3ccccc13)C2 (configuration not stated) |
| 8.83 min | CCC(C)OC(=O)N1CCCCC1CCO (configuration not stated) |
| 4.24 min | COCCOc1c(OC)cc(Cc2cnc(N)nc2N)cc1OC |

| LC retention time | Structure (SMILES) |
| --- | --- |
| 8.75 min | CC1CC2C(C(O)CC3(C)C2CCC3(O)C(=O)CO)C2(C)C=CC(=O)C=C12 (configuration not stated) |
| 4.86 min | NC12CC3CC(CC(C3)C1)C2 |
| 7.09 min | Cc1cnc(NC(=O)C2=C(O)c3ccccc3S(=O)(=O)N2C)s1 |
| 4.39 min | CC(CCc1ccc(O)cc1)NCC(O)c1ccc(O)cc1 (configuration not stated) |
| 9.58 min | O=C1OC(=O)c2ccccc21 |
| 4.03 min | NC(=O)c1cc[n+](CC2=C(C(=O)[O-])N3C(=O)C(NC(=O)Cc4cccs4)C3SC2)cc1 (configuration not stated) |
| 4.23 min | CCN(CC)C(=O)C1C=C2c3cccc4c3C(O)(CC2N(C)C1)C(=O)N4 (configuration not stated) |
| 7.23 min | Cc1c(C(C)C)c(=O)n(-c2ccccc2)n1C |
| 8.08 min | CNCCCC12CCC(c3ccccc31)c1ccccc12 |
| 5.49 min | CN(C)CCN1C(=O)c2ccccc2N(C)c2ccccc21 |
| 4.76 min | CC1(C)OCC2OC3(C(=O)O)OC(C)(C)OC3C2O1 (configuration not stated) |
| 3.48 min | CC(=O)Nc1ccc(O)cc1 |
| 6.12 min | CC(CCN1CCOCC1)OC(=O)C1(c2ccccc2)CCOCC1 (configuration not stated) |
| 10.6 min | CCOC(=O)NCCOc1ccc(Oc2ccccc2)cc1 |
| 5.12 min | CN(C)C(=O)Nc1ccccc1 |
| 8.43 min | Cc1ccsc1C(=CCCN1CCCC(C(=O)O)C1)c1sccc1C (configuration not stated) |
| 4.47 min | c1ccc2c(c1)CCCC2C1=NCCN1 (configuration not stated) |
| 5.74 min | CC(CCc1ccccc1)NCC(O)c1ccc(O)c(C(N)=O)c1 (configuration not stated) |
| 6.54 min | CCCC1C(=O)N2C(N(C)C)=Nc3ccc(C)cc3N2C1=O (configuration not stated) |
| 5.81 min | Nc1ccc(S(=O)(=O)Nc2cnc3ccccc3n2)cc1 |

| Structure (SMILES) | LC retention time |
| --- | --- |
| CC#Cc1cc(C)nc(Nc2ccccc2)n1 | 10.2 min |
| COc1ccc(-c2ccccc2)cc1NNC(=O)OC(C)C | 9.87 min |
| OC(c1ccccc1)(c1ccccc1)C1CCCCN1 (configuration not stated) | 5.78 min |
| CCNC(C)C(=O)c1ccc2c(c1)OCO2 (configuration not stated) | 4.04 min |
| CC=C1CC(C)C(C)(O)C(=O)OCC2=CCN(C)CCC(OC1=O)C2=O (configuration not stated) | 5.16 min |
| Nc1nc(N)nc(NC2CC2)n1 | 2.78 min |
| COc1ccc2[nH]cc(CCN)c2c1 | 4.01 min |
| COC1CC(CC2CCC(C)C(C(C)C(=O)O)O2)OC2(OC(C)(C3CCC(C)(C4OC(C5OC(O)(CO)C(C)CC5C)CC4C)O3)CC2C)C1C (configuration not stated) | 13.9 min |
| CCC(NC)C(=O)c1ccccc1 (configuration not stated) | 4.26 min |
| CNC(C)C(O)c1ccccc1 (configuration not stated) | 3.76 min |
| CCCCOC(=O)N(C)SN(C)C(=O)Oc1cccc2c1OC(C)(C)C2 | 12.1 min |
| c1ccc2c(c1)Cc1cccnc1N1CCNCC21 (configuration not stated) | 5.31 min |
| CCNC(C)Cc1ccc2c(c1)OCO2 (configuration not stated) | 4.39 min |
| CC12CCC(=O)C=C1CCC1C2CCC2(C)C(OC(=O)c3ccccc3)CCC12 (configuration not stated) | 13.8 min |
| COC(C)C(O)(C(=O)OCC1=CC[N+]2([O-])CCC(O)C12)C(C)C (configuration not stated) | 3.49 min |
| c1cncc(C2CCCN2)c1 (configuration not stated) | 3.14 min |
| CCCCCn1cc(C(=O)c2cccc3ccccc23)c2cc(O)ccc21 | 11.3 min |
| CCC(N)Cc1ccc2c(c1)OCO2 (configuration not stated) | 4.73 min |
| CCCCCc1cc(O)c2c(c1)OC(C)(C)C1CCC(C(=O)O)=CC21 (configuration not stated) | 12.5 min |
| CCCCCCn1cc(C(=O)c2cccc3ccccc23)c2ccccc21 | 12.9 min |
| NC(=O)N=C(N)N | 1.31 min |
| CCCCCn1c(C)c(C(=O)c2cccc3ccccc23)c2ccccc21 | 12.6 min |
| Cc1ccc(N)c(C)c1 | 5.04 min |
| CNCC1CCCCC1(O)c1cccc(OC)c1 (configuration not stated) | 5.3 min |

| Structure (SMILES) | LC retention time |
| --- | --- |
| CC=CCC1=C(C)C(OC(=O)C2C(C=C(C)C)C2(C)C)CC1=O (configuration not stated) | 12.9 min |
| CCNP(=S)(OC)OC(C)=CC(=O)OC(C)C (configuration not stated) | 9.79 min |
| CCCCc1c(C)nc(NCC)nc1OS(=O)(=O)N(C)C | 10.5 min |
| NC(=O)C(CCN1CCCCC1)(c1ccccc1)c1ccccc1 | 5.19 min |
| COC(=O)C1C2CCC(CC1OC(=O)c1ccccc1)N2 (configuration not stated) | 5.15 min |
| COC(=O)NC(=S)Nc1ccccc1NC(=S)NC(=O)OC | 6.93 min |
| CCCCCn1cc(C(=O)C23CC4CC(CC(C4)C2)C3)c2ccccc21 | 13.7 min |
| CC12Cc3cn[nH]c3CC1CCC1C2CCC2(C)C1CCC2(C)O (configuration not stated) | 11.3 min |
| C#CCNC(C)Cc1ccccc1 (configuration not stated) | 4.66 min |
| CCOP(=S)(OCC)Oc1cnccn1 | 8.35 min |
| CCOP(=S)(OCC)SCn1nnc2ccccc2c1=O | 10.2 min |
| COc1cccc(C(=O)CCNC(C)C(O)c2ccccc2)c1 (configuration not stated) | 6.14 min |
| COc1ccc2[nH]c(C)c(CCN(C)C)c2c1 | 4.19 min |
| CCC1CN2CCC3(O)C(=Nc4cccc(OC)c43)C2CC1C(=COC)C(=O)OC (configuration not stated) | 5.95 min |
| COc1nc(NC(C)C)nc(NC(C)C)n1 | 8.86 min |
| CC1(c2ccc(Oc3ccccc3)cc2)OC(=O)N(Nc2ccccc2)C1=O (configuration not stated) | 11 min |
| CCCCCn1cc(C(=O)Cc2ccccc2C)c2ccccc21 | 12.2 min |
| CCN(CCO)CCn1c(Cc2ccccc2)nc2c1c(=O)n(C)c(=O)n2C | 5.24 min |
| COc1cccc(C2(O)CCCCC2C[N+](C)(C)[O-])c1 (configuration not stated) | 5.24 min |
| CC=C1CC(C)C(O)(CO)C(=O)OCC2=CCN3CCC(OC1=O)C23 (configuration not stated) | 4.01 min |
| CCOP(=S)(OCC)OP(=S)(OCC)OCC | 10.8 min |
| CNC(=O)Oc1ccc2c(c1)C1(C)CCN(C)C1N2C (configuration not stated) | 3.89 min |
| CCOC(=O)C(SP(=S)(OC)OC)c1ccccc1 (configuration not stated) | 10.7 min |
| CC(C)(C)C(O)C(Oc1ccc(-c2ccccc2)cc1)n1cncn1 (configuration not stated) | 11.3 min |
